From PubChem BioAssay AID1259407 (Chemical Carcinogenesis Research Information System (CCRIS), 2018) come the findings set out here.

Structures are written as SMILES. Calls of active or inactive are those of the source. The rule behind the calls is not given here.

The subject of the data set is CCRIS mutagenicity, Ames/micronucleus/aberration tests. The data set can be described thus: CCRIS mutagenicity studies.

With `CCN(C)N=O`, the mutagenic call is, setting by setting: (Test System: AMES SALMONELLA TYPHIMURIUM, Strain/Indicator: TA100, Metabolic Activation: HAMSTER, LIVER, S-9, Method: PREINCUBATION) “active; positive”; (Test System: AMES SALMONELLA TYPHIMURIUM, Strain/Indicator: TA100, Metabolic Activation: HUMAN, LIVER, S-9, Method: PREINCUBATION) “inactive; negative”; (Test System: AMES SALMONELLA TYPHIMURIUM, Strain/Indicator: TA100, Metabolic Activation: PIG, LIVER, S-9, Method: PREINCUBATION) “inactive; negative”; (Test System: AMES SALMONELLA TYPHIMURIUM, Strain/Indicator: TA100, Metabolic Activation: RAT, LIVER, S-9, Method: PREINCUBATION) “inactive; negative”.
In the case of `O=NN(CCCl)C(=O)NCCCl`, the mutagenic call reads like this: (End Point: In vitro micronucleus, Test System: Human lymphoblastoid TK6 cells, Metabolic Activation: None) “active; positive (not dose related)”; (Test System: AMES SALMONELLA TYPHIMURIUM, Strain/Indicator: TA1535, Metabolic Activation: NONE, Method: STANDARD PLATE) “active; positive”; (Test System: CHINESE HAMSTER OVARY, Strain/Indicator: D422 (APRT), Metabolic Activation: NONE, Method: REPLATING) “active; positive”; (Test System: CHINESE HAMSTER V-79, Strain/Indicator: V-79/6-THIOGUANINE, Metabolic Activation: NONE, Method: STANDARD PLATE) “active; positive”.
Turning to `O=C(N=c1sn(C(=O)c2cccc(Cl)c2)c2ccc([N+](=O)[O-])cc12)c1cccc(Cl)c1`, under “Test System: AMES SALMONELLA TYPHIMURIUM, Strain/Indicator: TA100, Metabolic Activation: S-9, Method: STANDARD PLATE”, the mutagenic call is “active; positive”.
